Data published in article PMC12010937, “Evaluation of FXR Activity in Pollutants Identified in Sewage Sludge and Subsequent in Vitro and in Vivo Characterization of Metabolic Effects of Triphenyl Phosphate” (Environmental Health Perspectives, 2025).
“And” between values parts separate entries of the source, which are not always exact repeats. Equal entries are not always repeated. Structures can show the parent of a compound that is named as a salt. Where two headings read alike, the source gives them in different places.

What was measured:
[1] = molecular target: T1, human FXR-LBD (GST-FXR-LBD) (Homo sapiens, UniProt Q96RI1); experiment: HTRF coactivator recruitment assay, antagonist mode (in the presence of 50 μM CDCA); assay type: biochemical; settings: for Relative activity, antagonist mode: 50 μM compound in the presence of 50 μM CDCA, standardized against positive control DY268 (50 μM = 100%); for activity at 0.98 µM / activity at 1.95 µM / activity at 3.9 µM / activity at 7.8 µM / activity at 31.25 µM / activity at 62.5 µM / activity at 125 µM / activity at 250 µM / activity at […]: read-out: Relative antagonist activity (%); for activity at 1.95 µM: 1.95 μM compound + 50 μM CDCA; for activity at 3.9 µM: 3.90 μM compound + 50 μM CDCA; for activity at 31.25 µM: 31.25 μM compound + 50 μM CDCA; for activity at 62.5 µM: 62.50 μM compound + 50 μM CDCA; for activity at 250 µM: 250.00 μM compound + 50 μM CDCA, standardized to DMSO and 50 μM CDCA; for IC50: read-out: IC50, inhibition of CDCA-induced coactivator recruitment to FXR
T1 construct: the human FXR-LBD (residues 234–472) was expressed as a GST fusion protein GST-FXR-LBD; made in house; host or cells: E. coli BL21(DE3)
T1 sequence (Q96RI1 234-472 isoform Q96RI1-2): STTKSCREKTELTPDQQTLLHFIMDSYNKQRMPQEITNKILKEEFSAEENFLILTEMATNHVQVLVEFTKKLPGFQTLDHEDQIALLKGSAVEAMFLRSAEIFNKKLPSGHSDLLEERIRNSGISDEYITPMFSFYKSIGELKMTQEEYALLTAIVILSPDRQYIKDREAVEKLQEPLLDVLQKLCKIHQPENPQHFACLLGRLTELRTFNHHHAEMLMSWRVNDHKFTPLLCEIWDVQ

[2] = molecular target: T1, human FXR-LBD (GST-FXR-LBD); experiment: HTRF coactivator recruitment assay, agonist mode; assay type: biochemical
[3] = molecular target: T2, FXR (pCDNA3.1-hFXR, FXRE-luc) (Homo sapiens, UniProt Q96RI1); experiment: cell-based; assay type: cell-based; settings: for activity at 25 µM: HEK-293T, read-out: Relative luciferase activity (%)
T2 construct: host or cells: HEK 293T
T2 sequence (Q96RI1 1-486): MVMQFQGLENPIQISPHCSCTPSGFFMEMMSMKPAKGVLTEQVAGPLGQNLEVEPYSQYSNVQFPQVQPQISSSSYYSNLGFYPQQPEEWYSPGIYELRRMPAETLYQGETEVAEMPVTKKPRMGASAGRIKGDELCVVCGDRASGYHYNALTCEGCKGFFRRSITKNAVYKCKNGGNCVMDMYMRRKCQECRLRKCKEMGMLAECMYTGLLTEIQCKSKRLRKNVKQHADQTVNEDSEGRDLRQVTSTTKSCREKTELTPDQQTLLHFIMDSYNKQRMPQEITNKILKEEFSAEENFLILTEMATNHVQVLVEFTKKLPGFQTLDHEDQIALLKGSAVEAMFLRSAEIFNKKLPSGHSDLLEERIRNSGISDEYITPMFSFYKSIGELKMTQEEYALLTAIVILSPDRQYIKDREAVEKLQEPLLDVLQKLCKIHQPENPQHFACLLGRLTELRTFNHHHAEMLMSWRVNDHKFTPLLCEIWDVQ

[4] = 50 μM compound, standardized against positive control CDCA (50 μM = 100%)
[5] = 25 μM compound in the presence of 50 μM CDCA, DMSO 0%, 50 μM CDCA 100%, HEK 293T, replicates

CCCCC(CC)COC(=O)c1ccccc1C(=O)OCC(CC)CCCC (stereo not shown) [DEHP, bis(2-ethylhexyl) phthalate] was tested. Which “Relative activity, antagonist mode” value [1] did it give?
Its value is 4.48%.

What about the “Relative activity, agonist mode” value [2] of the same compound?
Its value is 0.27%.

For CC(C)(C)CC(C)(C)c1ccc(O)c(-n2nc3ccccc3n2)c1 [UV329, octrizole], which “Relative activity, antagonist mode” value [1] is on record?
The value was 18.06%.

What about the “Relative activity, agonist mode” value [2, 4] of the same compound?
The value was 0.085%.

How did the activity at 0.98 µM ([1]; 0.98 μM compound + 50 μM CDCA, replicates) turn out when CCCCCCCC/C=C\CCCCCCCC(=O)NCCO [OEA, oleoyl ethanolamide] was run?
Its activity at 0.98 µM is 106%.

What about the activity at 1.95 µM ([1]; replicates) of the same compound?
The activity at 1.95 µM was 114%.

What about the activity at 3.9 µM ([1]; replicates) of the same compound?
Its activity at 3.9 µM is 110%.

And the activity at 7.8 µM ([1]; 7.80 μM compound + 50 μM CDCA, replicates)?
Its activity at 7.8 µM is 110%.

What about the activity at 31.25 µM ([1]; replicates) of the same compound?
The activity at 31.25 µM was 102%.

And the activity at 62.5 µM ([1]; replicates)?
The activity at 62.5 µM was 101%.

And the activity at 125 µM ([1]; 125.00 μM compound + 50 μM CDCA, replicates)?
The activity at 125 µM was 96.2%.

What about the activity at 250 µM ([1]; replicates) of the same compound?
The activity at 250 µM was 89.5%.

And the activity at […] ([1]; […] compound + 50 μM CDCA, replicates)?
Its activity at […] is 104%.

What about the IC50 [1] of the same compound?
The IC50 was 34 µM.

What about the “Relative activity, agonist mode” value [2] of the same compound?
The value was 0.00%.

And the “Relative luciferase activity (%)” value ([3]; 10 μM compound in the presence of 50 μM CDCA, DMSO 0%, 50 μM CDCA 100%, HEK 293T, replicates)?
The value was 99.0% and 100.1% and 128.0%.

And the “Relative luciferase activity (%)” value [3, 5]?
The value was 96.5% and 110.1%.

And the activity at 25 µM [3, 5]?
The activity at 25 µM was 110%.

For CCCCCCCCCCCCCCCC(=O)NCCO [PEA, palmitoyl ethanolamide], which “Relative activity, antagonist mode” value [1] is on record?
Its value is 3.94%.

And the “Relative activity, agonist mode” value [2, 4]?
The value was 0.57%.

Which “Relative activity, antagonist mode” value [1] does the source give for CCCCOC(=O)CC(CC(=O)OCCCC)(OC(C)=O)C(=O)OCCCC [ATBC, acetyl tributyl citrate] here?
The value was 12.58%.

What about the “Relative activity, agonist mode” value [2, 4] of the same compound?
Its value is 2.49%.

Which results are given for O=C(Nc1ccc(Cl)cc1)Nc1ccc(Cl)c(Cl)c1 [TCC, triclocarban]?
Relative activity, antagonist mode [1]: 10.80%; Relative activity, agonist mode [2]: 0.44%

With CC(=O)c1cc2c(cc1C)C(C)(C)C(C)CC2(C)C (stereo not shown) [AHTN, tonalid] as the compound, how does the activity at 1.95 µM ([1]; replicates) read?
The activity at 1.95 µM was 96.2%.

And the activity at 3.9 µM ([1]; replicates)?
Its activity at 3.9 µM is 93.9%.

And the activity at 31.25 µM ([1]; replicates)?
The activity at 31.25 µM was 80.9%.

And the “Relative activity, antagonist mode” value [1]?
The value was 48.54%.

What about the activity at 62.5 µM ([1]; replicates) of the same compound?
Its activity at 62.5 µM is 61.4%.

What about the activity at 250 µM ([1]; replicates) of the same compound?
Its activity at 250 µM is 31.2%.

And the IC50 [1]?
The IC50 was 59.5 µM.

And the activity at 0.98 µM [1]?
The activity at 0.98 µM was 93.5%.

What about the activity at 7.8 µM [1] of the same compound?
Its activity at 7.8 µM is 94.1%.

And the activity at 125 µM [1]?
Its activity at 125 µM is 41.4%.

What about the activity at […] [1] of the same compound?
Its activity at […] is 89.3%.

And the “Relative activity, agonist mode” value [2]?
Its value is 2.19%.

What about the “Luciferase activity compared with DMSO control (in words)” value [3] of the same compound?
Its value is “significantly less luciferase activity”.

And the activity at 25 µM [3]?
Its activity at 25 µM is 40.1%.

How did the “Relative activity, antagonist mode” value [1] turn out when CCCCC(CC)COP(=O)(OCC(CC)CCCC)OCC(CC)CCCC (stereo not shown) [TEHP, tris(2-ethylhexyl) phosphate] was run?
The value was 17.25%.

What about the “Relative activity, agonist mode” value [2] of the same compound?
The value was 0.00%.
